Data from patent US20180291335A1, “MODIFIED POLYNUCLEOTIDES FOR ALTERING CELL PHENOTYPE” (ModernaTX, Inc., priority 2012, published 2018).

Key:
HeLa cells [1] = experiment: Luciferase in HeLa cells using a combination of modifications; format: cell-based, human; conditions: 83 ng luciferase modified RNA, 18 to 22 hours
Method: To evaluate using of 2′fluoro-modified mRNA in combination with other modification a series of mRNA were transcribed using either wild-type T7 polymerase (non-fluoro-containing compounds) or using mutant T7 polymerases (fluyoro-containing compounds) as described in Example 86. All modified mRNA were tested by in vitro transfection in HeLa cells.
(§1) The day before transfection, 20,000 HeLa cells (ATCC no. CCL-2; Manassas, Va.) were harvested by treatment with Trypsin-EDTA solution (LifeTechnologies, Grand Island, N.Y.) and seeded in a total volume of 100 ul EMEM medium (supplemented with 10% FCS and 1× Glutamax) per well in a 96-well cell culture plate (Corning, Manassas, Va.). The cells were grown at […] in 5% CO2 atmosphere overnight. […] Lipofectamine 2000 (LifeTechnologies, Grand Island, N.Y.) was used as transfection reagent and 0.2 ul were diluted in 10 ul final volume of OPTI-MEM. After 5 minutes of incubation at room temperature, both solutions were combined and incubated an additional 15 minute at room temperature. Then the 20 ul combined solution was added to the 100 ul cell culture medium containing the HeLa cells and incubated at room temperature.
(§2) After 18 to 22 hours of incubation cells expressing luciferase were lysed with 100 ul of Passive Lysis Buffer (Promega, Madison, Wis.) according to manufacturer instructions. Aliquots of the lysates were transferred to white opaque polystyrene 96-well plates (Corning, Manassas, Va.) and combined with 100 ul complete luciferase assay solution (Promega, Madison, Wis.). The lysate volumes were adjusted or diluted until no more than 2 mio relative light units (RLU) per well were detected for the strongest signal producing samples and the RLUs for each chemistry tested are shown in Table 26. The plate reader was a BioTek Synergy H1 (BioTek, Winooski, Vt.). The background signal of the plates without reagent was about 200 relative light units per well.

Balb-C mice [2] = experiment: In vivo screening of combination luciferase modified mRNA, whole-body bioluminescence; conditions: subcutaneous, 100 ug mRNA in 1×PBS, imaged 8 hours after dosing
Method: (§3) A control of PBS was also tested. The dosages of the modified luciferase mRNA is also outlined in Table 22. 8 hours after dosing the mice were imaged to determine luciferase expression. Twenty minutes prior to imaging, mice were injected intraperitoneally with a D-luciferin solution at 150 mg/kg. Animals were then anesthetized and images were acquired with an IVIS Lumina II imaging system (Perkin Elmer). Bioluminescence was measured as total flux (photons/second) of the entire mouse.

HeLa cells [3] = experiment: 2′Fluoro luciferase mRNA transfection in HeLa cells; format: cell-based, human; conditions: 83 ng 2′fluoro-containing luciferase RNA, 18 to 22 hours
Method: The 2′Fluoro-modified mRNA were then transfected into HeLa cells to assess protein production in a cell context and the same mRNA were also assessed in a cell-free rabbit reticulocyte system. A control of unmodified luciferase (natural luciferase) was used for both transcription experiments, a control of untreated and mock transfected (Lipofectamine 2000 alone) were also analyzed for the HeLa transfection and a control of no RNA was analyzed for the rabbit reticulysates.
For the HeLa transfection experiments, the day before transfection, 20,000 HeLa cells (ATCC no. CCL-2; Manassas, Va.) were harvested by treatment with Trypsin-EDTA solution (LifeTechnologies, Grand Island, N.Y.) and seeded in a total volume of 100 ul EMEM medium (supplemented with 10% FCS and 1× Glutamax) per well in a 96-well cell culture plate (Corning, Manassas, Va.). The cells were grown at […] in 5% CO2 atmosphere overnight. […] Lipofectamine 2000 (LifeTechnologies, Grand Island, N.Y.) was used as transfection reagent and 0.2 ul were diluted in 10 ul final volume of OPTI-MEM. […] The lysate volumes were adjusted or diluted until no more than 2 mio relative light units (RLU) per well were detected for the strongest signal producing samples and the RLUs for each chemistry tested are shown in Table 24. The plate reader was a BioTek Synergy H1 (BioTek, Winooski, Vt.). […]

[4] = test system: Rabbit Reticulocyte Lysate; experiment: 2′Fluoro luciferase mRNA in rabbit reticulocyte lysate assay; format: biochemical; conditions: Rabbit reticulysates, 250 ng luciferase mRNA, 60 minutes
Method: For the rabbit reticulocyte lysate assay, 2′-fluoro-containing luciferase mRNA were diluted in sterile nuclease-free water to a final amount of 250 ng in 10 ul and added to 40 ul of freshly prepared Rabbit Reticulocyte Lysate and the in vitro translation reaction was done in a standard 1.5 mL polypropylene reaction tube (Thermo Fisher Scientific, Waltham, Mass.) at 30° C. in a dry heating block. The translation assay was done with the Rabbit Reticulocyte Lysate (nuclease-treated) kit (Promega, Madison, Wis.) according to the manufacturer's instructions. The reaction buffer was supplemented with a one-to-one blend of provided amino acid stock solutions devoid of either Leucine or Methionine resulting in a reaction mix containing sufficient amounts of both amino acids to allow effective in vitro translation. […]
Aliquots of the in vitro translation reaction containing luciferase modified RNA were transferred to white opaque polystyrene 96-well plates (Corning, Manassas, Va.) and combined with 100 ul complete luciferase assay solution (Promega, Madison, Wis.). The volumes of the in vitro translation reactions were adjusted or diluted until no more than 2 mio relative light units (RLUs) per well were detected for the strongest signal producing samples and the RLUs for each chemistry tested are shown in Tables 24 and 25. The plate reader was a BioTek Synergy H1 (BioTek, Winooski, Vt.). […]

HeLa cells [5] = experiment: G-CSF modified mRNA transfected in HeLa cells, G-CSF ELISA; format: cell-based, human; conditions: HeLa cells, ELISA
Method in brief: (§4)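 G-CSF ELISA readout after 250 ng of chemically modified human G-CSF mRNA (transcribed by mutant T7 polymerase) was added to rabbit reticulocyte lysate or transfected in vitro into HeLa cells.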

Balb-C mice [6] = experiment: In vivo screening of luciferase modified mRNA, whole-body bioluminescence; conditions: subcutaneous; for Luciferase expression (photon/second): 42 to 103 ug mRNA in 1×PBS, imaged 8 hours after dosing, total flux of entire mouse
Method: as §3

HeLa cells [7] = experiment: In vitro screening in HeLa cells, luciferase modified RNA; format: cell-based, human; conditions: HeLa cells, 83 ng luciferase modified RNA, 18 to 22 hours
Method: as §1
as §2, with “19.” for “26.”

[8] = test system: tumor necrosis factor alpha (TNF-α); experiment: In vitro screening in PBMC: tumor necrosis factor alpha induction by ELISA; format: cell-based, human
Method in brief: (§5)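 Read-out: ELISA of frozen-stored culture supernatants for secreted G-CSF and induced cytokines.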

interferon-alpha (IFN-α) = experiment: In vitro screening in PBMC: interferon-alpha induction by ELISA; format: cell-based, human
Method in brief: as §5

[9] = test system: human embryonic kidney 293 (HEK293) cells; experiment: Cytotoxicity of NTPs, CYTO TOX-GLO assay; format: cell-based
Method: The cytotoxicity of natural and modified nucleoside triphosphates (NTPs) alone or in combination with other bases, was analyzed in human embryonic kidney 293 (HEK293) cells in the absence of transfection reagent. […] 10 ul of the NTPs outlined in Table 12 were combined with 10 ul of lipid dilution and incubated for 30 minutes to form a complex before 80 ul of the HEK293 cell suspension was added to the NTP complex.
Natural and modified NTPs were transfected at a concentration of 2.1 nM, 21 nM, 210 nM, 2.1 um, 21 uM, 210 um or 2.1 mM. NTPs in combination were transfected at a total concentration of NTPs of 8.4 nM, 84 nM, 840 nM, 8.4 uM, 84 uM, 840 uM and 8.4 mM. […] The cytotoxicity of the NTPs and the modified G-CSF mRNA was assayed at 4, 24, 48 and 72 hours post addition to the HEK293 cells using a CYTO TOX-GLO™ assay from Promega (Madison, Wis.) following the manufacturer protocol except pippeting was used for lysing the cells instead of shaking the plates.

[10] = test system: peripheral blood mononuclear cells (PBMC); experiment: In vitro screening in PBMC: G-CSF protein expression by ELISA; format: cell-based, human
Method in brief: as §5

rabbit reticulysates = experiment: G-CSF modified mRNA in rabbit reticulysates, G-CSF ELISA; format: biochemical; conditions: 250 ng of modified mRNA
Method in brief: as §4

[11] = test system: Rabbit Reticulocyte Lysate; experiment: In vitro screening in rabbit reticulocyte lysates, luciferase mRNA translation; format: biochemical; conditions: 250 ng luciferase mRNA, 60 minutes, 30° C.
Method: The diluted luciferase was added to 40 ul of freshly prepared Rabbit Reticulocyte Lysate and the in vitro translation reaction was done in a standard 1.5 mL polypropylene reaction tube (Thermo Fisher Scientific, Waltham, Mass.) at 30° C. in a dry heating block. The translation assay was done with the Rabbit Reticulocyte Lysate (nuclease-treated) kit (Promega, Madison, Wis.) according to the manufacturer's instructions. The reaction buffer was supplemented with a one-to-one blend of provided amino acid stock solutions devoid of either Leucine or Methionine resulting in a reaction mix containing sufficient amounts of both amino acids to allow effective in vitro translation.
After 60 minutes of incubation, the reaction was stopped by placing the reaction tubes on ice. Aliquots of the in vitro translation reaction containing luciferase modified RNA were transferred to white opaque polystyrene 96-well plates (Corning, Manassas, Va.) and combined with 100 ul complete luciferase assay solution (Promega, Madison, Wis.). The volumes of the in vitro translation reactions were adjusted or diluted until no more than 2 mio relative light units (RLUs) per well were detected for the strongest signal producing samples and the RLUs for each chemistry tested are shown in Table 20. The plate reader was a BioTek Synergy H1 (BioTek, Winooski, Vt.). The background signal of the plates without reagent was about 200 relative light units per well.

[12] = PBMC Donor 1, 500 ng G-CSF mRNA
[13] = PBMC Donor 2, 500 ng G-CSF mRNA
[14] = PBMC Donor 3, 500 ng G-CSF mRNA

5-methylcytidine/where 50% of the uridine is replaced with 2-thiouridine: Luciferase mRNA (SEQ ID NO: 409) with 5-methylcytidine and 50% of the uridine replaced with 2-thiouridine
RLU (HeLa cells [1]): 41,601 RLU
Luciferase expression (photon/second) (Balb-C mice [2]): 2.39E+06 photon/second

2′-flurorouridine: Luciferase mRNA (SEQ ID NO: 409) fully modified with 2′-fluorouridine
RLU (HeLa cells [3]): 6767.5 RLU
RLU [4]: 258 RLU
RLU (HeLa cells [1]): 305 RLU
G-CSF protein (pg/ml) HeLa cells (HeLa cells [5]; combination chemistries): 0 pg/mL
Luciferase expression (photon/second) (Balb-C mice [6]): 3.47E+05 photon/second
in vivo activity (Balb-C mice [6]; luciferase mRNA, result in words): exception

O=c1[nH]cc([C@@H]2O[C@H](CO)[C@@H](O)[C@H]2O)c(=O)[nH]1 [Pseudouridine]
RLU (HeLa cells [7]): 655,632 RLU
G-CSF protein (pg/ml) HeLa cells (HeLa cells [5]; G-CSF mRNA): 1,150,909 pg/ml
TNF-α Expression [8, 12]: 36 pg/mL
TNF-α Expression [8, 13]: 81 pg/mL
TNF-α Expression [8, 14]: 126 pg/mL
IFN-α Expression (interferon-alpha (IFN-α); [12]): 120 pg/mL
IFN-α Expression (interferon-alpha (IFN-α); [13]): 77 pg/mL
IFN-α Expression (interferon-alpha (IFN-α); [14]): 171 pg/mL
cytokine induction (interferon-alpha (IFN-α); PBMC, G-CSF mRNA, result in words): detectable cytokine induction which is above background
toxicity as compared to the untreated cells [9]: not toxic
Luciferase expression (photon/second) (Balb-C mice [6]): 1.36E+07 photon/second
G-CSF Protein Expression [10, 12]: 2477 pg/mL
G-CSF Protein Expression [10, 13]: 1,909 pg/ml
G-CSF Protein Expression [10, 14]: 1,498 pg/ml
G-CSF protein (pg/ml) Rabbit reticulysates cells (rabbit reticulysates): 147,875 pg/ml
RLU [11]: 587,795 RLU
